Measured values published in patent US6710077B1, “Use of thiocarboxanilide derivatives for the preparation of a medicament for preventing the transmission of HIV to uninfected cells and contraceptive compositions comprising the said derivatives” (Uniroyal Chemical Company, Inc., priority 1996, dated 2004).

How the values were obtained:
[1] = test system: PBL cells isolated from blood of HIV-1 infected patients; assay: Incubation of PBL from HIV-1 infected patients with compound, then co-culture with CBMC; assay type: cell-based; settings: for infectivity of HIV-1 produced by patient PBL: 10 μM, 2 hr at 37° C., drug removed, co-culture with CBMC, p24 antigen, FIG. 3
Protocol: FIG. 3 depicts the effect of pretreatment of peripheral blood lymphocytes (PBL) from HIV-1 infected patients with Compound IA on the subsequent virus infectivity of CBMC cells. 2×10^6 isolated PBL cells were incubated for 2 hours with media only (●), 10 μM nevirapine (▪), or 10 μM Compound IA (▴), then residual drug was removed. The cells were then co-cultured with 2×10^6 CBMC cells and p24 production was monitored.
PBL cells (2×10^6 cells) isolated from blood of HIV-1 infected patients were incubated with media, 10 μM nevirapine and 10 μM Compound IA, in a total volume of 1 ml for 2 hr at 37° C. Excess drug was then removed by pelleting the cells by centrifugation at 300×g for 10 min and removal of the medium. The cell pellet was washed by suspension in 10 ml media, followed by centrifugation. This washing step was repeated twice. The final cell pellet was resuspended in 1 ml media, then co-cultured with 1 ml of activated CBMC (2×10^6 cells) The culture medium was changed every two days, and fresh activated CBMC (2×10^6 cells) were added once a week. HIV-1 production was monitored by measurement of p24 antigen levels in cell-free culture supernatants.
FIG. 3 illustrates the results obtained using PBL from three different patients.

HIV-1 = assay: Preincubation of isolated HIV-1 with test compounds, then infection of PHA-activated CBMC; settings: 2 hours at 37° C., drug removed, RT activity and p24 on day 7, FIG. 1
Protocol: Identical viral inocula (with respect to viral p24 levels) were then added to PHA-activated CBMC. Viral infectivity was assessed by measurement of RT activity in cell-free culture supernatants after 7 days incubation of cells and virus. […] The results are averages ±S.D. of triplicate determinations from three separate experiments.
All cells were cultured in RPMI medium containing 10% fetal bovine serum. HIV-1 stocks were propagated by subculture in MT-2 cells; aliquots of the cell-free culture supernatants were generally used as viral inocula. In some cases, virus was further concentrated from these cell-free supernatants by ultracentrifugation. CBMC were prestimulated with phytohemagglutinin (PHA) prior to use in infection experiments, as described in Rooke et al, Virology 176: 205-215 (1990). Stock solutions of the test compounds were prepared in dimethyl sulfoxide (DMSO). […] Virus production was assessed by measurement of RT activity and viral p24 antigen levels in the culture supernatants.
After incubation, drug-free RPMI was added to a final volume of 15 ml and the diluted sample was concentrated to a final volume of 0.7 ml using a Centriprep-100 centrifugal concentrating device, according to manufacturer's directions. […] On day 7, culture supernatants were isolated and HIV production assessed by measurement of RT activity and p24 antigen levels in the cell-free supernatants.

[2] = test system: HIV-1 infection of uninfected MT-2 cells; settings: MT-2 cells pretreated with 2 μM, drug removed, continued presence of HIV-1
Protocol: FIG. 4A: Uninfected MT2 cells were incubated for 18 hours with varying concentrations of Compound IA in 1 ml media, then the cells were pelleted by centrifugation, and washed twice by resuspension in 10 ml medium followed by centrifugation. The cells were exposed to identical inocula of HIV-1 and cultured in the absence of added drug. Four days after removal of Compound IA, the extent of HIV-1 infection was assessed by measurement of syncytia formation (●), viral p24 antigen levels (▴), and RT activity (∘), in cell-free supernatants. […] Uninfected MT2 cells were incubated for 18 hours in the absence (∘) or the presence of 0.5 μM (▴), 1 μM (∇), or 2 μM (●), of Compound IA. […] Viral cytopathicity was scored by microscopic assessment of syncytia formation. […]
FIG. 5A: Uninfected MT2 cells were incubated for 18 hours in the absence (▪) or the presence (●) of 2 μM of Compound IA, then the cells were isolated and cultured in the absence of drug. At various times thereafter, HIV-1 was added and virus infectivity assessed by microscopic analysis of syncytium formation. […]
All cells were cultured in RPMI medium containing 10% fetal bovine serum. […] Virus production was assessed by measurement of RT activity and viral p24 antigen levels in the culture supernatants. […]

[3] = test system: HIV-1 chronically-infected H9 cells; assay: Incubation of HIV-1 chronically-infected H9 cells with test compounds, then infectivity on MT-2 cells; assay type: cell-based
Source text: FIG. 2 depicts the effect of pretreatment of chronically-infected H9 cells with Compound IA or UC84 on (A) virus particle release from H9 cells during drug exposure, as assessed by measurement of HIV-1 p24 levels; (B) infectivity of isolated virus produced by H9 cells during drug treatment, as assessed by the ability to subsequently infect MT2 cells in the absence of drug; and (C) the ability of Compound IA-pretreated chronically-infected H9 cells to subsequently infect MT2 cells in co-culture experiments carried out in the absence of drug. The data illustrated for (B) and (C) were obtained four days after exposure of MT2 cells to virus or H9 cells, respectively. (∘) Compound UC84; (●) Compound IA.
The cells were then separated from the culture supernatants by centrifugation at 1000×g for 10 min. The virus particles were isolated from the culture supernatants and from residual Compound IA using Centriprep-100 centrifugal concentrating devices and the dilution/concentration protocol described above in Example 1. The pelleted H9 cells were washed by suspension in 10 ml RPMI, followed by centrifugation at 1000×g for 10 min. The cell pellet was resuspended in 4 ml RPMI/10% FBS, and used in co-culture experiments as described below.
Aliquots of the final concentrated HIV suspension were added to MT-2 cells ([…] cells/ml). Virus infectivity was assessed 6 days post-infection by analysis of syncytium formation, and RT activity and p24 antigen in the MT-2 cell culture supernatants. Similarly, aliquots of the drug-treated H9 cells were added to MT-2 cells (3×10^5 cells/ml) to give a final MT-2:H9 cell ratio of 30:1. Cells were co-cultured for 4 days, and HIV infection of MT-2 cells was scored by assessing syncytium formation and by analysis of RT activity in the culture supernatants.

SMILES | infectivity of HIV-1 produced by patient PBL [1] | viral infectivity after preincubation of isolated HIV-1 with compound (HIV-1) | duration of resistance to the cytopathic effect of HIV-1 [2] | resistance of pretreated cells to the cytopathic effect of HIV-1 ([2]; syncytium formation) | viral infectivity after 30 days co-culture with uninfected CBMC ([1]; 10 μM pretreatment of patient PBL, 30 days co-culture) | persistence of attenuated infectivity following removal of extracellular compound ([3]; chronically-infected H9 cells) | infectivity of virus produced by H9 cells following removal of compound ([3]; pretreated, washed H9 cells co-cultured with MT-2 cells in absence of drug) | infectivity of virus particles isolated after exposure of chronically-infected H9 cells ([3]; virus isolated from culture supernatants, added to MT-2 cells in absence of drug, FIG. 2)
Cc1ccnc2c1NC(=O)c1cccnc1N2C1CC1 [nevirapine, reference compound] | unable to significantly delay viral infectivity | No viral inactivation | – | – | – | – | – | –
CC(C)=CCOc1cc(NC(=S)c2ccoc2C)ccc1Cl [Compound IA, N-[4-chloro-3-(3-methyl-2-butenyloxy)phenyl]-2-methyl-3-furancarbothioamide] | abolished the infectivity | rendered non-infectious | at least 9 days | completely resistant | No viral infectivity | at least 4 days | also attenuated in infectivity | significantly attenuated in infectivity
